Assays:
[1] = system: BMDCs; assay: Cell viability of BMDCs (CellTiter-Glo, cellular ATP); type: cell-based, mouse; details: for EC50: Mus musculus, BMDC, zymosan-stimulated BMDCs, read-out: Viability loss EC50
Protocol: (§1) Bone marrow-derived DCs were differentiated from C57BL/6 bone marrow in the presence of GM-CSF-conditioned media. CD11c^+ CX3CR1^hi myeloid cells and CD11c^+ CX3CR1^− DCs were isolated from the small intestine lamina propria of Cx3cr1^eGFP/+ mice (12). Detection of cell-surface Thy1.1 expression on BMDCs from 10BiT reporter mice was conducted as described previously (24). Cell viability was estimated by change in total cellular ATP levels using CellTiterGlo assays (Promega). Preparation of recombinant SIK proteins and IC50 measurements were conducted as described previously (21). Total RNA was extracted using a NucleoSpin 96 RNA isolation kit (Macherey-Nagel) followed by cDNA synthesis and multiplex RT-PCR using a microfluidic dynamic array (Fluidigm). The concentrations of TNF-α, IL-6, IL-10, IL-12p40, IL-1β and RANTES in culture supernatants were detected using a FlexSet Cytometric bead array (BD Biosciences). Alternatively, IL-10 secretion was quantified using ELISA (BD Biosciences) or AlphaLISA (PerkinElmer) assays. NO production was estimated based on nitrate content in culture medium using the Greiss reagent.
(§2) BMDCs were seeded into black 384-well plates (Corning) at 20,000 cells/well in 40 μL complete DMEM using a Multidrop COMBI (Thermal Scientific) followed by incubation at 37° C. for 2 hr to allow for plate adherence. SIK inhibitors (100 nL/well) were pin-transferred from concentrated DMSO stocks using CyBi-Well Vario (CyBio) into duplicate plates. For each treatment plate, 32 out of 384 wells were pinned with DMSO as negative control and 32 out of 384 wells were pinned with PGE2 (5 μM final concentration). Two days after SIK inhibitor treatment, BMDCs were stimulated with zymosan (4 μg/mL final concentration) dispersed in culture medium (20 μL/well) using a Multidrop COMBI. After 18 hr, 5 μL of resulting supernatant was transferred from the culture plate to white 384-well AlphaLISA plates (Perkin Elmer) using a CyBi-Well Vario. IL-10 abundance in the supernatants was determined using an AlphaLISA assay (PerkinElmer) according to the manufacture's protocol and signal intensity measured using an EnVision multimode plate reader. SIK inhibitor activity was expressed as a % of the differences between the mean abundance of IL-10 in PGE2 versus DMSO wells on a per plate basis. Cell viability assays were conducted on the same tissue culture plates as the IL-10 assay. First media was removed and replaced by solution of 50% (vol/vol) CellTiter-Glo (Promega) in PBS. Luminescence was read using an Envision multimode plate reader, and signal intensity calculated relative to DMSO control wells on a per plate basis.

[2] = system: IL-10 production by zymosan-stimulated BMDCs; assay: IL-10 up-regulation in zymosan-stimulated BMDCs (AlphaLISA/ELISA); type: cell-based, mouse; details: for EC50: Mus musculus, BMDC, read-out: IL-10 induction EC50; for effect on IL-10 production by BMDCs (in words): kinase inhibitor screen / PGE2 control
Protocol: as §1
(§3) C57BL/6 mice were euthanized and bone marrow harvested from femurs and tibias as described previously (Graham D B, et al. (2007) An ITAM-signaling pathway controls cross-presentation of particulate but not soluble antigens in dendritic cells. The Journal of experimental medicine 204(12):2889-2897). BMDCs were differentiated DMEM supplemented with 2 mM GlutaMAX, 10% (vol/vol) FBS, penicillin, streptomycin and 2% mouse GM-CSF conditioned media derived from TOPO cells. Cultures were differentiated for 7 days and routinely analyzed for >90% CD11c (APC anti-CD11c clone HL3; BD Biosciences) positivity by flow cytometry before use in experiments. Lentiviral transduction of bone marrow cultures was conducted by addition of 293T culture supernatants containing lentiviral particles encoding the CREB dependent luciferase reporter construct or CRTC3 targeting or control shRNAs one day post-isolation. Stable integration of lentiviral shRNA constructs was selected by addition of puromycin (3 μg/mL) on day 4 post-transduction. After 2 days, stably transduced BMDCs were released from selection and used in subsequent assays. Unless otherwise indicated, cells were treated for 2 days with PGE2 (5 μM) or HG-9-91-01 (0.5 μM) or an equivalent concentration of DMSO (≤0.5%) and then stimulated for 18 hr with LPS (100 ng/mL), R848 (10 μg/mL) or zymosan (4 μg/mL).
as §2, with “Luminescence was read using an Envision multimode plate reader, and signal intensity calculated relative to DMSO control wells on a per plate basis.” left out

[3] = molecular target: T1, SIK3 (Homo sapiens, UniProt Q9Y2K2); assay: Protein kinase assay ([γ-32P] ATP, phosphocellulose paper) against SIK3; type: biochemical; details: read-out: Enzyme Inhibition IC50 SIK3
T1 construct: made in house
T1 sequence (Q9Y2K2 whole entry): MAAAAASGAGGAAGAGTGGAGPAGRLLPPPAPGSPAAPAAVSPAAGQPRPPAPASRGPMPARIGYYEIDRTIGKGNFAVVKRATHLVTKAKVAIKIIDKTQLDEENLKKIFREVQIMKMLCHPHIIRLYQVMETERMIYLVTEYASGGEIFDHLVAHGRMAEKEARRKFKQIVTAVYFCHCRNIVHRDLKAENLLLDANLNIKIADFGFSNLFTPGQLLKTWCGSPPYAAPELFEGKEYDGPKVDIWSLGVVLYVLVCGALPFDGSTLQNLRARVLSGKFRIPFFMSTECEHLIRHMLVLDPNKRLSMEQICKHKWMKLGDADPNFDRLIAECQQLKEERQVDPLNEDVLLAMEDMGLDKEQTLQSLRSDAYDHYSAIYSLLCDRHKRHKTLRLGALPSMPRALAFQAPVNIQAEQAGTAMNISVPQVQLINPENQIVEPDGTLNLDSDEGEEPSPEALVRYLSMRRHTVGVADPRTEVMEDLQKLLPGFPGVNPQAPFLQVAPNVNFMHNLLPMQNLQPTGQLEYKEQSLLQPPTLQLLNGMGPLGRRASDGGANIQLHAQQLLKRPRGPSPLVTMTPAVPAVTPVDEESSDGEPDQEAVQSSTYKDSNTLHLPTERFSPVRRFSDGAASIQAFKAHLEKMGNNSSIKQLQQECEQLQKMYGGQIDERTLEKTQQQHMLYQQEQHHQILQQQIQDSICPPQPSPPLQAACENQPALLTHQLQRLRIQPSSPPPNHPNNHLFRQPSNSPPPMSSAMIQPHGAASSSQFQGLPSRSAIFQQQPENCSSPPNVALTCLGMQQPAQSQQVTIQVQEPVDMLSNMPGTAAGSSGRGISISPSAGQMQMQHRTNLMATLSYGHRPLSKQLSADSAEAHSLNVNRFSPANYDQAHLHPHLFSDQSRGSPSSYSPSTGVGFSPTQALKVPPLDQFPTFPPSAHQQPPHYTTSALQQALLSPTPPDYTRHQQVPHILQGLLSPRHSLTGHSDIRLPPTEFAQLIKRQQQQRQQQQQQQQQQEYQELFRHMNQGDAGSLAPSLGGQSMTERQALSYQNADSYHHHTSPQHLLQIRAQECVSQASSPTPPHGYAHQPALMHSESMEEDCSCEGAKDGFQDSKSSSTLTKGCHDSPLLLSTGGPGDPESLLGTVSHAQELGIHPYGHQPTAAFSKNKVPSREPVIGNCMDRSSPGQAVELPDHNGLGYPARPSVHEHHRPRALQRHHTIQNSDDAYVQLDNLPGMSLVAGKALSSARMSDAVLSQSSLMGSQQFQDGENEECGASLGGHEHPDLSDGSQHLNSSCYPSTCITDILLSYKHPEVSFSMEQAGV
Protocol: as §1
(§4) In another set of experiments, the activities of the SIK inhibitors described herein against SIK were determined according to the methods reported in Hastie et al., Nature Protocols, 2006, 1, 968-971.
(§5) This buffer consisted of 50 mM Tris-HCl, pH 7.5, 0.1 mM EGTA, 1 mg ml^−1 bovine serum albumin and 0.1% (vol/vol) 2-mercaptoethanol.
(§6) An assay buffer of 500 mM Tris-HCl, pH 7.5, 1 mM EGTA, and 100 mM magnesium acetate was used for the protein kinase assay.
(§7) The specific activity of the [γ-^32P] ATP solution was 1×10^5 to 1×10^6 c.p.m. per nmol depending on what was needed to produce an optimal signal/noise ratio. Stocks of nonradioactive (“cold”) ATP were dissolved in 10 mM HEPES, and the pH of the resulting stock solutions was adjusted to 7.4. To measure the concentration of ATP, a sample of such a stock solution was diluted to 20 μM, and the absorbance of the diluted sample was measured at 259 nm. The absorbance of a 20-μM stock solution of ATP at 259 nm was about 0.31. The 1-mM solution of cold ATP was “spiked” with [γ-^32P] ATP to produce a radioactivity of 1×10^5 to 1×10^6 c.p.m. per nmol.
(§8) 1) The number of assay samples needed was determined based on, e.g., the following considerations: (i) each condition was assayed in duplicate; (ii) two controls containing peptide or protein substrate and ATP but no SIK were included to assess contamination by any free ATP not incorporated into substrate, alongside two controls lacking a peptide or protein substrate but containing ATP and SIK to correct for any incorporation of phosphate into the kinase itself (e.g., autophosphorylation); and (iii) a maximum of 40 samples were assayed manually at one time by a single person. Microcentrifuge tubes were label distinctly and were placed on ice.
(§9) 4) Dilute the SIK in enzyme dilution buffer and place on ice.
(§10) 5) Pipette 5 j±l of 10× concentrated assay buffer, 5 j±l peptide or protein substrate (the two “no-substrate” control tubes had 5 j±l water added instead of peptide or protein substrate), and 30 μl distilled water into each tube. Keep the tubes on ice.
(§11) 6) Add 5 μl diluted SIK to each tube, except for the two “no-enzyme” control tubes, which had 5 μl enzyme dilution buffer added, and still keeping the tubes on ice. In some cases, premixed “cocktails” of assay components were prepared containing peptide or protein substrate, assay buffer, and distilled water to limit the number of additions to each assay tube. Each of steps 7 to 14 was done behind a plexiglass shield.
(§12) 7) Insert each tube into the water bath at intervals of 15 s to allow the assay mixture to reach 30° C. Begin the SIK reactions by adding 5 μl of 1 mM [γ-^32P] ATP to each tube at intervals of 15 s. Close each tube, vortex for 1 s to mix the contents and immediately replace in a rack in the water bath. Incubate for 10 min at 30° C. […]

[4] = molecular target: T2, SIK1 (Homo sapiens, UniProt P57059); assay: Protein kinase assay ([γ-32P] ATP, phosphocellulose paper) against SIK1; type: biochemical; details: 1 μM; DMSO set to 100%; read-out: Activity of protein kinase treated with 1 μM of I-1 (% control (DMSO)) SIK1
T2 construct: made in house
T2 sequence (P57059 whole entry): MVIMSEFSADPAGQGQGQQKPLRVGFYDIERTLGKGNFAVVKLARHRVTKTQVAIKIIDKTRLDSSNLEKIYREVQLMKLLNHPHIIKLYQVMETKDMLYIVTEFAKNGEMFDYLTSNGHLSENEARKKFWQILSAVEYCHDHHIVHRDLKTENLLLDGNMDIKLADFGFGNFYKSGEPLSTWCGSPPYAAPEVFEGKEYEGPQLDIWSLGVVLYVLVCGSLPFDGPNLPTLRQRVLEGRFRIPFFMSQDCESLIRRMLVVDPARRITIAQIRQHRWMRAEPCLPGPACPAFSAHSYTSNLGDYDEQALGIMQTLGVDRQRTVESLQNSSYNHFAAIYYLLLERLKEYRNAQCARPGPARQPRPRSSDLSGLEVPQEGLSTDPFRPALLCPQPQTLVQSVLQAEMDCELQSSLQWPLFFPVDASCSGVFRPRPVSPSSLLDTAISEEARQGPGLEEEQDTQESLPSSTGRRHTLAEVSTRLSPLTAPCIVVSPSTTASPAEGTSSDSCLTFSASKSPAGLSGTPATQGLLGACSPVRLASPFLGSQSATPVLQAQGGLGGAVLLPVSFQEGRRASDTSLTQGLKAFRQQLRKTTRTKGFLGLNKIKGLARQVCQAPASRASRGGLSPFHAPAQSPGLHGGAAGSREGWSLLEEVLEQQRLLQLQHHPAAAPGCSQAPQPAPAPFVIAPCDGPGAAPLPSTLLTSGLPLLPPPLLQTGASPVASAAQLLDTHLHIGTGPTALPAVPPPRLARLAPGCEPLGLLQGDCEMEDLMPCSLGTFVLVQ
Protocol: as §1, with “Total RNA was extracted using a NucleoSpin 96 RNA isolation kit (Macherey-Nagel) followed by cDNA synthesis and multiplex RT-PCR using a microfluidic dynamic array (Fluidigm).” left out, “NO production was estimated based on nitrate content in culture medium using the Greiss reagent.” left out
In another set of experiments, the activities of the SIK inhibitors described herein against SIK were determined according to the methods reported in Hastie et al., Nature Protocols, 2006, 1, 968-971. […]
The specific activity of the [γ-^32P] […] To measure the concentration of ATP, a sample of such a stock solution was diluted to 20 μM, and the absorbance of the diluted sample was measured at 259 nm. The absorbance of a 20-μM stock solution of ATP at 259 nm was about 0.31. […] ATP to produce a radioactivity of 1×10^5 to 1×10^6 c.p.m. per nmol. […]

[5] = molecular target: T3, SIK2 (Homo sapiens, UniProt Q9H0K1); assay: Protein kinase assay ([γ-32P] ATP, phosphocellulose paper) against SIK2; type: biochemical; details: for IC50: read-out: Enzyme Inhibition IC50 SIK2
T3 construct: made in house
T3 sequence (Q9H0K1 whole entry): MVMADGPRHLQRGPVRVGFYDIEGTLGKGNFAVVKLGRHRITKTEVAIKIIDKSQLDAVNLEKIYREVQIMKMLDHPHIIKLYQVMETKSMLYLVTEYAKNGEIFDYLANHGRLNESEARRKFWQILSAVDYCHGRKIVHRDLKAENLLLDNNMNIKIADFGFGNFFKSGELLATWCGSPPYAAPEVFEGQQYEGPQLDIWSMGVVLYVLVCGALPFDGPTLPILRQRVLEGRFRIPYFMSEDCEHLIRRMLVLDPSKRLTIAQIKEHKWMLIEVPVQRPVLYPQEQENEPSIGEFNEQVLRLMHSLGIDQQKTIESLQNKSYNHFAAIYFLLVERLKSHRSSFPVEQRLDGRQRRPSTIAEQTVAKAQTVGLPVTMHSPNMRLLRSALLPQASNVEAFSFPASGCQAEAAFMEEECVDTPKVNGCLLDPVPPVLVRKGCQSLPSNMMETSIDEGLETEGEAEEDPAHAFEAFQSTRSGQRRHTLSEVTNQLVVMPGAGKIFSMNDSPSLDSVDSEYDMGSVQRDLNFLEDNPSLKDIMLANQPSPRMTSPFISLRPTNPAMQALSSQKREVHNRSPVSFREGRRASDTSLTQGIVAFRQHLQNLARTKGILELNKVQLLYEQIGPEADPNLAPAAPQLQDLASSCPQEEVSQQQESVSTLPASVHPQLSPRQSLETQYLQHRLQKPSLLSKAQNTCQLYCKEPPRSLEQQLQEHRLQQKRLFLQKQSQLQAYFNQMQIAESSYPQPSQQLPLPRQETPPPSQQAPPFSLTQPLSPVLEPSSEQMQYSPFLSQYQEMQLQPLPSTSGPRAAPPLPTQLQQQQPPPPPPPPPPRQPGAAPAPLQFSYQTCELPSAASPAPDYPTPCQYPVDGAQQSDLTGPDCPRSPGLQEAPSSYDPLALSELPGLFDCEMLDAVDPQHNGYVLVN
Protocol: as §1, §4, §5, §6, §7, §8, §9, §10, §11, §12

[6] = system: BMDCs; assay: Multiplex qPCR of transcripts in stimulated BMDCs; type: cell-based, mouse; details: 2 days pre-treatment, 4 hr LPS, R848 or zymosan
Protocol: as §1
as §3, with “Unless otherwise indicated, cells were treated for 2 days with PGE2 (5 μM) or HG-9-91-01 (0.5 μM) or an equivalent concentration of DMSO (≤0.5%) and then stimulated for 18 hr with LPS (100 ng/mL), R848 (10 μg/mL) or zymosan (4 μg/mL).” left out
Total RNA was extracted using a NucleoSpin 96 RNA isolation kit (Macherey-Nagel). […] Relative gene expression was calculated from Ct values and normalized against ACTB mRNA levels as described previously (Pfaffl MW (2001) A new mathematical model for relative quantification in real-time RT-PCR. Nucleic acids research 29(9):e45). […]

[7] = system: BMDCs; assay: Cytokine (cytometric bead array) and NO (Greiss) production by stimulated BMDCs; type: cell-based, mouse
Protocol: as §1, §3
After stimulation of cells with microbial ligands, the culture medium was removed, clarified by centrifugation for 10 min at 14,000×g, and the concentration of TNF-α, IL-6, IL-10, IL-12p40, IL-1β and RANTES were measured using FlexSet Cytokine Bead Array (BD Biosciences) according to the manufacturer's instructions. Where indicated, ELISAs were used to detect IL-10 and IL-12p70 (BD Biosciences) according to the manufacturer's instructions. NO production was estimated based on nitrate content in culture medium using the Greiss reagent as described previously (Miletic A V, et al. (2007) Vav proteins control MyD88-dependent oxidative burst. Blood 109(8):3360-3368).

| SMILES | viability of BMDCs (in words) [1] | IC50 [3] | EC50 [1] | IC50 [5] | further results |
| --- | --- | --- | --- | --- | --- |
| Cc1c[nH]c(-c2cnc(NCCNc3ccc(C#N)cn3)nc2-c2ccc(Cl)cc2Cl)n1 [CHIR-99021, reference compound] | reduced viability | – | – | – | maximum effect on IL-10 production ([2]; zymosan-stimulated BMDCs, hit criterion): > 30 % of the PGE2 response |
| CCN1CCN(CCOc2ccc3cc2COC/C=C/CN(C(=O)Oc2c(C)cccc2C)c2ccnc(n2)N3)CC1 [I-2] | – | 445 nM | 6580 nM | 87.8 nM | remaining activity at 1 µM [4]: 15.9%; remaining activity at 1 µM ([5]; 1 μM, DMSO set to 100%, read-out: Activity of protein kinase treated with 1 μM of I-1 (% control (DMSO)) SIK2): 15% |
| Cc1cccc(C)c1OC(=O)N1C/C=C/COCc2cc(ccc2OCCN2CCC(O)CC2)Nc2nccc1n2 [I-4] | – | 409 nM | 5000 nM | 93.8 nM | EC50 ([2]; zymosan-stimulated BMDCs): 10500 nM |
| Cc1cccc(C)c1OC(=O)N1C/C=C\COCc2cc(ccc2OCCN2CCC(O)CC2)Nc2nccc1n2 [I-5] | – | 73.7 nM | 6120 nM | 12 nM | EC50 ([2]; zymosan-stimulated BMDCs): 23800 nM |
| CCCCC[C@H](O)/C=C/[C@H]1[C@H](O)CC(=O)[C@@H]1C/C=C\CCCC(=O)O [PGE2, prostaglandin E2, reference compound] | – | – | – | – | IL-10 mRNA levels [6]: robustly enhanced; abundance of Arg1 and Nos2 transcripts [6]: highly induced; IL-10 secretion ([7]; BMDCs pre-treated, LPS, R848 or zymosan 18 hr): similarly induced; IL-1β production ([7]; BMDCs, stimulation with R848 or zymosan): enhanced; NO production ([7]; BMDCs, zymosan stimulation, relative to HG-9-91-01-treated): increased NO production; effect on IL-10 production by BMDCs (in words) [2]: increased levels of IL-10 |
| COc1cc(N2CCC(N3CCN(C)CC3)CC2)ccc1Nc1ncc(Cl)c(Nc2ccccc2S(=O)(=O)C(C)C)n1 [TAE-684, reference compound] | reduced viability | – | – | – | – |
| COc1cc(Nc2c(C#N)cnc3cc(OCCCN4CCN(C)CC4)c(OC)cc23)c(Cl)cc1Cl [bosutinib, reference compound] | reduced viability | – | – | – | – |
| Cc1ccc(NC(=O)c2ccc(CN3CCN(C)CC3)cc2)cc1Nc1nccc(-c2cccnc2)n1 [imatinib, reference compound] | non-toxic | – | – | – | effect on IL-10 production by BMDCs (in words) [2]: did not up-regulate IL-10 production |
| CN1CCN(CCOc2cc(OC3CCOCC3)c3c(Nc4c(Cl)ccc5c4OCO5)ncnc3c2)CC1 [saracatinib, reference compound] | reduced viability | – | – | – | – |

From US10265321B2, “Uses of salt-inducible kinase (SIK) inhibitors” (Dana-Farber Cancer Institute, Inc., priority 2014, dated 2019)
